{"source": "patent US20190365745A1", "about": "“USE OF CHRONIC TREATMENT WITH ATR INHIBITORS TO SENSITIZE CANCER CELLS TO PARP INHIBITORS” (Cornell University, priority 2018, published 2019)", "format_in_all_cases": "cell-based, Human", "key": {"U2OS cells [1]": {"tested_on": "U2OS cells", "assay": "Immunoblotting of HR factor abundance", "experimental": "FIG. 5A is a schematic diagram of the SILAC/MS experiment. FIG. 5B is a quadrant diagram of the SILAC/MS experiment. Each dot represents a different identified protein. Proteins with abundance reduced two-fold or more after ATRi treatment are shown in the upper-left corner (white quadrant). FIG. 5C is a WB analysis of U2OS cells after 8 days of chronic treatment with 5 μM of ATRi or ATMi. FIG. 5D is a time course WB analysis of U2OS cells during chronic treatment with 5 μM ATRi. FIG. 5E is a WB analysis of U2OS cells at distinct cell cycle stages. Cells were treated with 1 mM hydroxyurea (HU) or 50 ng/ml nocodazole (Noc) for 24 hours. HU treated cells were released for 2.5 hours in HU-free media. FIG. 5F is a WB analysis of U2OS cells untreated or treated for 8 days with 5 μM ATRi.\n(§1) Human U2OS, HCT116, hTERT RPE-1, HEK293T, HeLa, U87, T98G, A2780, and human skin fibroblast cells (GM08398 and GM18366) were grown in DMEM media supplemented with 10% bovine calf serum, penicillin/streptomycin and non-essential amino acids. SV40 large T antigen transformed hTERT RPE-1 cells were generated by infecting hTERT RPE-1 cells with a SV40 large T antigen (SV40 LT)-expressing retrovirus and were selected using 500 μg/ml G418. The stable SV40 large T antigen transformed hTERT RPE-1 cell line was then maintained in culture media supplemented 500 μg/ml G418. For chronic treatment with ATR inhibitor (ATRi, VE-821) or ATM inhibitor (ATMi, KU-55933), cells were maintained in media with 5 μM ATR or ATM inhibitor respectively for 8 days before cells were subjected to western blot analysis, proteomic analysis, DR-GFP/EJ5-GFP assay or immunofluorescent staining. For CHK1 inhibitor (UCN-01), cells were treated for 5 days with 0.2 μM of inhibitor before the analysis. Primary human fibroblast cells from control subjects (GM08398) and patients with Seckel syndrome (GM18366, ATR-defective) were obtained from Coriell Institute for Medical Research, Camden, N.J.\nCells were harvested and lysed in modified radioimmunoprecipitation assay (RIPA) buffer (50 mM Tris-HCl pH 7.5, 150 mM NaCl, 1% tergitol, 0.25% sodium deoxycholate, 5 mM EDTA) supplemented with Complete EDTA-free protease inhibitor cocktail (Roche), 1 mM PMSF, 5 mM sodium fluoride, 10 mM β-glycerol-phosphate and 0.4 mM sodium orthovanadate. Whole cell lysates were cleared with 5 minute centrifugation at 13,000 rpm at 4° C. and mixed with 3×SDS sample buffer (bromophenol blue, stacking gel buffer, 50% glycerol, 3% SDS and 60 mM DTT). After being resolved on SDS-PAGE gels, proteins were then transferred onto polyvinylidene difluoride (PVDF) membranes and detected with designated antibodies."}, "hTERT RPE-1 cells": {"tested_on": "hTERT RPE-1 cells", "assay": "Immunoblotting of HR factor abundance", "settings": "5 μM ATRi, 8 days", "experimental": "FIGS. 14A-14B show WB analysis of hTERT RPE-1 (FIG. 14A) or HCT116 (colon cancer)(FIG. 14B) cells after 8 day chronic treatment with 5 μM ATRi or ATMi. […] FIGS. 14D-14E are bar graphs showing the analysis of HR-mediated repair using the DR-GFP system. Relative fold change of GFP positive hTERT RPE-1 (FIG. 14D) or HCT116 (FIG. 14E) cells over DMSO after ATRi treatment. (Error bars=SEM, N≥3, ****P-value<0.0001; one sample-t-test was used for the statistical analysis comparing 2 days versus 8 days of treatment).\nHuman U2OS, HCT116, hTERT RPE-1, HEK293T, HeLa, U87, T98G, A2780, and human skin fibroblast cells (GM08398 and GM18366) were grown in DMEM media supplemented with 10% bovine calf serum, penicillin/streptomycin and non-essential amino acids. […]\nCells were harvested and lysed in modified radioimmunoprecipitation assay (RIPA) buffer (50 mM Tris-HCl pH 7.5, 150 mM NaCl, 1% tergitol, 0.25% sodium deoxycholate, 5 mM EDTA) supplemented with Complete EDTA-free protease inhibitor cocktail (Roche), 1 mM PMSF, 5 mM sodium fluoride, 10 mM β-glycerol-phosphate and 0.4 mM sodium orthovanadate. […] After being resolved on SDS-PAGE gels, proteins were then transferred onto polyvinylidene difluoride (PVDF) membranes and detected with designated antibodies."}, "U2OS cells [2]": {"tested_on": "U2OS cells", "assay": "DR-GFP assay of HR-mediated repair", "experimental": "as §1\nFor the DR-GFP assay, cells (U2OS, HCT116, hTERT RPE-1, HEK293T, HeLa, U87, T98G, A2780, 293-T-REX-E2F6 cells and SV40 large T antigen transformed hTERT RPE-1) were transfected with the mCherry plasmid or DR-GFP reporter plasmid (pDR-GFP; addgene plasmid 26475) together with a plasmid coding for I-SceI (pCBASceI; addgene plasmid 26477) or DR-GFP reporter plasmid together with an empty plasmid pCAGGS. Two days after transfection, cells were trypsinized, resuspended in PBS and then analyzed by flow cytometry using FACSAria Fusion or Accuri C6 cytometer (BD). In each experiment, the percentage of GFP-positive cells from the sample transfected with empty plasmid pCAGGS was subtracted from the percentage of GFP-positive cells in the sample transfected with I-SceI. The GFP percentage was then normalized by the mCherry transfection efficiency. Each graph was plotted based on at least 3 independent experiments showing mean±SEM (N≥3). For the EJ5-GFP assay, EJ5-GFP reporter plasmid (pimEJ5GFP, addgene plasmid 44026) was used instead of DR-GFP reporter plasmid and the assay was performed as described for DR-GFP assay."}}, "data": [{"molecule": "CS(=O)(=O)c1ccc(-c2cnc(N)c(C(=O)Nc3ccccc3)n2)cc1", "note": "[ATRi, VE-821]", "values": [{"measurement": "Changes in abundance of NHEJ factors 53BP1 and PTIP (WB)", "setting": "U2OS cells [1]; 5 μM ATRi, 8 days", "value": "minimal"}, {"measurement": "Changes in protein abundance, time course (WB)", "setting": "U2OS cells [1]; 5 μM ATRi, after 2 and 4 days", "value": "minor changes in protein abundance"}, {"measurement": "Changes in protein abundance, time course (WB)", "setting": "U2OS cells [1]; 5 μM ATRi, after 6 and 8 days", "value": "changes become more striking"}, {"measurement": "Abundance of several proteins involved in HR-mediated repair (WB)", "setting": "U2OS cells [1]; chronic ATR inhibition", "value": "severely reduced"}, {"measurement": "Protein levels of RAD51 and TOPBP1 (WB)", "setting": "U2OS cells [1]; chronic ATR inhibition, 5 μM, 8 days", "value": "reduced"}, {"measurement": "Abundance of BRCA1 (WB)", "setting": "hTERT RPE-1 cells", "value": "did not result in major changes in the abundance of BRCA1"}, {"measurement": "HR-mediated repair efficiency (DR-GFP, GFP positive cells over DMSO)", "setting": "U2OS cells [2]; 5 μM, chronic 8 days", "value": "strikingly more severe impairment in HR-mediated repair as compared to short-term ATR inhibition"}, {"measurement": "HR (DR-GFP) upon short-term ATR inhibition", "setting": "U2OS cells [2]; short-term (2 days) ATRi", "value": "modest reduction in HR"}]}]}
